Here are results for 1 substance from patent EP4431111A1, “PROBIOTIC AS VACCINE IMMUNOADJUVANT” (COREE S.r.l., priority 2023, dated 2024).

The subject of the data set is A549 cells. As to the kind of experiment: Cytotoxicity, LDH-release assay on A549 cells. Type of data set: cell-based, human. The settings on record: 1% Triton X-100, 10 minutes at room temperature, positive control C+ set at 100%. On the procedure: The cytotoxicity of all the conditions tested was evaluated on A549 cells by the LDH activity assay. Cells were seeded in 96 well plate at a density of 3×10^4cells/well: they were leaved at 37°C for 24h and then they were co-cultured with S-protein alone or in the presence of aluminium-based adjuvant or heat-inactivated probiotic strains for 24h. At the end of this incubation period, the release of LDH in the supernatants was evaluated by commercial colorimetric kit following manufacturer's instruction. The control included medium alone used as blank. The spectrophotometric absorbance was measured at 450nm wavelength using a microplate reader.

Take Triton X-100: the “release of LDH” value is given as “maximal release of LDH”.
